Publication PMC4595737, “Cyclic diguanylate monophosphate directly binds to human siderocalin and inhibits its antibacterial activity” (Nature Communications, 2015)

Columns and labels:
Type in all cases: binding
STING = biological target: T1, STING (Homo sapiens, UniProt Q86WV6); test: UV cross-linking with c-di-[…]GMP, SDS-PAGE autoradiography (STING as positive control)
T1 construct: gene STING1

Siderocalin (LCN2) [1] = biological target: T2, Siderocalin (LCN2) (Homo sapiens, UniProt P80188); test: ITC ([…], n=[…]); UV cross-linking with c-di-[…]GMP and cold competition
T2 construct: recombinant human LCN2 (rLCN2) without a signal peptide fragment

[2] = biological target: T3, Siderocalin (LCN2), rLCN2-W79A (Homo sapiens, UniProt P80188, W99A); test: ITC
T3 construct: recombinant human LCN2 (rLCN2) without a signal peptide fragment

Siderocalin (LCN2) [3] = biological target: T2, Siderocalin (LCN2); test: ITC; competition with c-di-[…]GMP cross-linking

T2 sequence (P80188 21-198): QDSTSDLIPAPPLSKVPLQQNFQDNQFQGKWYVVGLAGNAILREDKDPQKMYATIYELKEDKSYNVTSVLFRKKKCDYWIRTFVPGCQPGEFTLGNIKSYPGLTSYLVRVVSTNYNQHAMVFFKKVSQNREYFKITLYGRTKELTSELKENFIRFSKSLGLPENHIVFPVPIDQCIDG
T1 sequence (Q86WV6 whole entry): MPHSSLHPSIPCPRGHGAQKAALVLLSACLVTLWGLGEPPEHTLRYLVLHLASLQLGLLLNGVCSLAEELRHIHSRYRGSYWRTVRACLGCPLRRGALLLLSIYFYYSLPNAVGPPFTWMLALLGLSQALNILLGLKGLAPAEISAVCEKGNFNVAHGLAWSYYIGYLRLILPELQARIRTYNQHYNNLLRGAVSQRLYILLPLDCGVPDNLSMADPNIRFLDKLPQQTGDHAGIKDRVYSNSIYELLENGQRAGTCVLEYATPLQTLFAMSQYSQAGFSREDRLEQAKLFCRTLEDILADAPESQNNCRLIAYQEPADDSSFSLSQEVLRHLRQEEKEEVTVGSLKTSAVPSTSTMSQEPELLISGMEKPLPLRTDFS
T3 sequence (P80188 21-198 W99A): as the sequence (P80188 21-198) above, with W79A counted along it

Kd (Siderocalin (LCN2) [1]) [nM] | Compound | UV cross-linking with c-di-[32P]GMP, SDS-PAGE autoradiography (STING as positive) (STING) | Kd [2] [nM] | Kd (Siderocalin (LCN2) [3]) [nM]
1630 ± 50 | Nc1nc2c(ncn2[C@@H]2O[C@@H]3COP(=O)(O)O[C@H]4[C@@H](O)[C@H](n5cnc6c(=O)[nH]c(N)nc65)O[C@@H]4COP(=O)(O)O[C@H]3[C@H]2O)c(=O)[nH]1 [c-di-GMP] | STING, as a positive control, could clearly bind to the second messenger as indicated by an autoradiograph signal | – | –
– | O=C(N[C@H]1COC(=O)[C@@H](NC(=O)c2cccc(O)c2[O-])COC(=O)[C@@H](NC(=O)c2cccc(O)c2[O-])COC1=O)c1cccc(O)c1[O-].[Fe+3] [ferric enterobactin] | – | 250 ± 50 | 240 ± 30
